The test system of test [1] is Transthyretin (Homo sapiens), P02766 [V50M]. The experiment in a line: Inhibition of acid mediated TTR V30M mutant (unknown origin) aggregation under pH 4.7 at 20 uM measured upto 6 days by thioflavin-T fluorescence assay. The following applies: time <= 6.0 day.
Test [2] has as its target Transthyretin (Homo sapiens) (UniProt P02766). The experiment in a line: Binding affinity to TTR in human plasma assessed as stabilization of TTR tetramer by measuring fluorescence intensity measured after 6 hrs by absorbance based analysis. The format is cell-free. The following applies: dose 20-100 µM.
The target is the same in test [3]. The test can be described thus: Binding affinity to TTR in human plasma assessed as stabilization of TTR tetramer by measuring fluorescence intensity at 100 uM measured after 6 hrs by absorbance based analysis relative to control. The format is cell-free.
Test [4] has the same target. The experiment in a line: Binding affinity to TTR in human plasma assessed as stabilization of TTR tetramer by measuring fluorescence intensity at 50 uM measured after 6 hrs by absorbance based analysis relative to control. The format is cell-free.
For test [5] the target is unchanged. The experiment in a line: Binding affinity to TTR in human plasma assessed as stabilization of TTR tetramer by measuring fluorescence intensity at 20 uM measured after 6 hrs by absorbance based analysis relative to control. It is filed as cell-free.

Active and inactive are the calls of the source. No cut-off for these calls is given here.

With `CC1(C)C=Cc2c(cc(O)c3c(=O)c(-c4ccc(O)cc4)coc23)O1`, the inhibition entry in test [1] was “Active”. The Activity entry in test [2] is “Dose-Dependent Effect”.

`CC(C)=CCOc1ccc(-c2coc3cc4c(c(O)c3c2=O)C=CC(C)(C)O4)cc1`: the inhibition entry in test [1] is “inactive”. In addition, the Activity entry in test [2] was “Dose-Dependent Effect”.

For the compound `C=CC(C)(C)c1cc(-c2coc3cc4c(c(O)c3c2=O)C=CC(C)(C)O4)ccc1O`, the inhibition entry in test [1] is “inactive”. In addition, the Activity result in test [2] is “Dose-Dependent Effect”.

Take `CC1(C)C=Cc2c(cc3occ(-c4ccc(O)cc4)c(=O)c3c2O)O1`: the inhibition result in test [1] is “Active”. The Activity entry in test [2] is “Dose-Dependent Effect”.

On to `CC(C)=CCc1c2c(c(O)c3c(=O)c(-c4ccc(O)c(O)c4)coc13)C=CC(C)(C)O2`, for which the inhibition result in test [1] is “Active”. The Activity entry in test [2] was “Dose-Dependent Effect”.

In the case of `CC(C)=CCc1cc(-c2coc3cc4c(c(O)c3c2=O)C=CC(C)(C)O4)ccc1O`, the inhibition result in test [1] was “inactive”. For the same compound, the Activity result in test [2] is “Dose-Dependent Effect”.

On to `CC(C)=CCOc1ccc(-c2coc3c4c(cc(O)c3c2=O)OC(C)(C)C=C4)cc1`, for which the inhibition entry in test [1] is “inactive”. The Activity result in test [2] was “Dose-Dependent Effect”.

As for `CC(C)=CCc1c2c(c3occ(-c4ccc(O)cc4O)c(=O)c3c1O)C=CC(C)(C)O2`, the inhibition result in test [1] is “Active”. For the same compound, the Activity entry in test [2] was “Dose-Dependent Effect”; in test [3], 35%; in test [4], 50%; in test [5] it was 70%.

Consider `CC(C)=CCc1cc(-c2coc3c4c(cc(O)c3c2=O)OC(C)(C)C=C4)ccc1O`, for which the inhibition entry in test [1] is “inactive”. In addition, the Activity entry in test [2] was “Dose-Dependent Effect”.

The values are drawn from ChEMBL document CHEMBL6127117, “Divergent Total Synthesis of Isoflavone Natural Products and Their Potential as Therapeutic Agents for TTR Amyloidosis” (J Nat Prod, 2024).
